Measurements from ChEMBL document CHEMBL1158516, “Synthesis and application of a photoaffinity analog of dehydroepiandrosterone (DHEA)” (Bioorg Med Chem Lett, 2010).
Calls of active or inactive are those of the source. The calls are words filed in the database; no cut-off is given here.

System: Endothelial cell
Experiment: Binding affinity to DHEA receptor in bovine aortic endothelial cells exposed to UV for 15 mins at 5 nM after 1 hr by chemiluminescence
Format: cell-based
Conditions: Bos taurus

Row | SMILES | Activity
1 | O=C(CCCC[C@@H]1SC[C@@H]2NC(=O)N[C@@H]21)NCCCC[C@H](NC(=O)c1ccc(C(=O)c2ccccc2)cc1)C(=O)O | inactive
2 | C[C@]12CC[C@H](O)CC1=CC[C@@H]1[C@@H]2CC[C@]2(C)/C(=N/OCC(=O)NCCCCCCNC(=O)[C@H](CCCCNC(=O)CCCC[C@@H]3SC[C@@H]4NC(=O)N[C@@H]43)NC(=O)c3ccc(C(=O)c4ccccc4)cc3)CC[C@@H]12 | Active
